Source: patent US9486434B2, “Method for delivery and use of isothiocyanates for prophylaxis and/or therapy of bladder cancer” (Health Research Inc., priority 2010, dated 2016)

Assays:
[1] = tested on: cyclooxygenase-2 (Cox-2) in human bladder cancer HT1376 cells; experiment: Western blot analysis of Cox-2 in HT1376 cells; type: cell-based; conditions: 24 h, cells overexpressing Cox-2
Method: FIG. 5. The effects of AITC and SF on cyclooxygenase-2 (Cox-2) expression in human bladder cancer cells. Human bladder cancer HT1376 cells that over express Cox-2 were treated with AITC or SF at the indicated concentrations for 24 h and then harvested for Western blot analysis of Cox-2. GAPDH is used as a loading control.

[2] = tested on: α-tubulin, β-tubulin, γ-tubulin, caspase-9, caspase-3, VEGF in UM-UC-3 cells; experiment: Western blotting in UM-UC-3 cells (tubulins, caspases, VEGF); type: cell-based, human; conditions: 24 h
Method: FIG. 4. Effect of AITC on mitosis, tubulin expression and apoptosis in human bladder cancer UM-UC-3 cells. Cells were treated with vehicle or AITC for 24 h (each numerical value is mean±SD). A. Flow cytometry analysis for cell cycle arrest. B. Wright-Giemsa staining for counting mitotic figures. Arrows point to cells in mitosis or mitotic catastrophe. C. Immunofluorescent staining of microtubules (green color) and DNA staining with DAPI (blue color). D. Western blotting of tubulins (GAPDH as a loading control). E. Loss of mitochondrial transmembrane potential (Δψm) measured by flow cytometry. F. Western blotting of caspase-9 and caspase-3 (GAPDH as a loading control). G. Apoptotic cells (TUNEL cells) measured by flow cytometry. Cells in F and G were co-treated with or without 20 microM Z-LEHD-FMK (a caspase-9 inhibitor).
FIG. 8. Inhibition of bladder cancer development by MSP-1. Female F344 rats were inoculated with AY-27 cells intravesically via a urethra catheter to initiate development of orthotopic bladder cancer. Oral administration of MSP-1 of vehicle (water) once daily was started 1 day after cancer cell inoculation and ended 3 weeks later. The number of rats per group varied from 11-29. A. Initial (□) and final (▪) body weights. B. Tumor weight was calculated by subtracting the average normal bladder weight from tumor-bearing bladder weight. *P<0.05. Each value in A and B is mean±SEM. C. Percentage of bladder where the tumor invaded the muscle tissue. D. The effects of MSP-1 on selected anticancer targets in UM-UC-3 cells (in vitro), AY-27 cells (in vitro) and AY-27 tumors (in vivo). The cells were treated with MSP-1 at the sinigrin concentrations of 13 and 26 microM for 24 h. The bladder tumors were removed from rats treated with MSP-1 at the sinigrin doses of 9 or 90 micromols/kg once daily for 3 weeks, started 1 day after cancer cell inoculation. Cell lysates and tumor homogenates were analyzed by Western blotting, using GAPDH as a loading control.
Western blot analysis. […]

[3] = tested on: normal human bladder epithelial cells (HUC); experiment: Cell cycle arrest and apoptosis in HUC; type: cell-based; conditions: 7.5 and/or 15 microM
Method: (§1) FIG. 3. The effect of AITC on cell survival and proliferation. AITC was evaluated at the indicated concentrations in human bladder cancer UM-UC-3 cells, rat bladder cancer AY-27 cells, and normal human bladder epithelial cells (HUC). A. Cell growth inhibition, measured by MTT assay, 72-h AITC treatment. IC50 was calculated from nonlinear regression curve fit. B. Cell cycle arrest (□, subG1; ? , G1; ? , 5; ▪, G2/M), measured by flow cytometry, 24 h AITC treatment. C. Apoptosis induction, measured by an ELISA assay, 24 h AITC treatment. Mean±SE, n=3-6), *P<0.05.

[4] = female, F344, rat, in vivo
Method: FIG. 7. Pharmacokinetics of AITC in F344 rats. A & B. Five groups of 4-6 female rats were administered a single oral dose of AITC at 10 or 300 micromols/kg and then kept in metabolism cages for urine collection (1 rat/cage) for 1.5, 3, 6, 12 and 24 h. At the end of each time period, blood was drawn from one group of rats, from which plasma was prepared. C. Rats bearing orthotopic bladder tumors, 3 weeks after AY-27 cell inoculation, were administered a single oral dose of AITC at 300 micromols/kg. Orthotopic tumors were removed from the rats at 0 h (T1), 1.5 h (T2), and 6 h (T3) after AITC dosing. Concentrations of AITC equivalent in plasma, urine and tumor tissue homogenates were determined by the cyclocondensation assay developed in our lab. Each value is a mean±SE.
Rats were administered a single oral dose of AITC at 10 or 300 micromols/kg, and urine and blood were collected at several time intervals up to 24 h. Cyclocondensation assay was used for measurement of AITC equivalent in the samples [12]. Oral administration of AITC led to dose-dependent increase in the levels of AITC equivalent in both plasma and urine (FIGS. 7A & 7B). […]
AITC and NAC-AITC contents in the plasma and urine were determined using the high-performance liquid chromatography (HPLC)-based cyclocondensation assay, and are expressed as AITC equivalent or NAC-AITC equivalent. […]

[5] = tested on: normal human bladder epithelial cells (HUC); experiment: MTT cell growth assay, normal bladder epithelial cells; type: cell-based; conditions: 72-h treatment
Method: as §1

Q: What does the source list for `C=CCN=C=S` [AITC, allyl isothiocyanate]?
A: effect on Cox-2 expression [1]: not detectable; caspase-9 and caspase-3 activation [2]: activation of both caspase-9 and caspase-3; α-tubulin and β-tubulin levels [2]: significantly down regulated; cell cycle arrest and apoptosis in HUC [3]: failed to cause cell cycle arrest and apoptosis; average 24-h urinary concentration as % of peak urinary concentration [4]: 11.6-45.2%; average 24-h urinary concentration relative to plasma concentration at 24 h [4]: 4,911-14,501 fold higher; IC50 [5]: 69.4 µM
